Experimental data taken from patent publication US8722623B2, “Compositions and methods utilizing fibrin beta chain fragments” (University of Maryland, Baltimore, priority 2007, dated 2014).
“Also recorded” adds a separate entry of the source. No end group written: not given here.

What was measured:
[1] = test system: VE-cadherin; assay: Surface plasmon resonance binding of peptides to immobilized VE-cadherin fragment; settings: for affinity to VE-cadherin (in words): comparison between peptides; for binding to VE-cadherin: added at 400 nM
Method: To test binding activities of fibrin beta chain derived peptides of the invention to VE-caherin, surface plasmon resonance (SPR) methods are, for example, used. SPR experiments are performed using, for example, a BIAcore 3000 biosensor (BIAcore AB, Uppsala, Sweden), which can be used to measure the association/dissociation of peptides or proteins in real-time (see, for example, Karlsson, R., and Falt, A. J. Immunol. Methods (1997) 200, 121-133; Hall, D. Anal. Biochem. (2001) 288, 109-125; see also Gorlatov et al. Biochemistry (2002) 41, 4107-4116 for other VE-cadherin binding assays including, for example, SPR IAsys Analysis based assays and ELISA based assays). An exemplary method is described in the following passage. VE-cadherin fragment is covalently coupled via epsilon-amino groups to the activated surface of a CM5 biosensor chip by the procedure described by, for example, Karlsson, R., and Falt, A. (J. Immunol. Methods (1997) 200, 121-133; see also Gorlatov et al. Biochemistry (2002) 41, 4107-4116). Briefly, the carboxyl groups on the sensor surface were activated with an injection of a solution containing, for example, 0.2 M N-ethyl-N-(3-diethylamino-propyl) carbodiimide and 0.05 M N-hydroxysuccinimide. VE-cadherin to be coupled is prepared in 10 mM sodium-acetate buffer, pH 4.0, containing 1 mM CaCl2, and injected onto the activated CM5 surface at 5 mL/min followed by incubation for 7 min after which the surface was deactivated by passing 1 M ethanolamine. Activation time, ligand concentration, and contact time are adjusted to achieve a coupling density of 5-6 ng/mm2. Binding experiments are performed, for example, in 10 mM Hepes buffer, pH 7.4, containing 200 mM NaCl, 1 mM CaCl2, 0.02% NaN3, and 0.05% n-octyl beta-D-glucopyranoside (binding buffer). Samples comprising, for example, fibrin beta chain derived peptides β15-42, β15-64, and (β15-66)2, at different concentrations are injected in duplicate in at least three separate experiments and the association/dissociation between the immobilized and the added peptides is monitored as the change in the SPR response. To regenerate the chip, complete dissociation of the complex was achieved by adding, for example, 20 mM Tris buffer, pH 7.5, containing 0.5 M urea, 0.5 M NaCl, and 0.5% Triton X-100, for 1 min following reequilibration with binding buffer. Experimental data are analyzed using, for example, BIAevaluation 3.0 software supplied with the instrument. Briefly, kinetic constants, kass and kdis, are estimated by global analysis of the association/dissociation curves to the 1:1 Langmurian interaction model (Morton, T. A., and Myszka, D. G. Methods Enzymol. (1998) 295, 268-294). The dissociation equilibrium constant (Kd) is calculated as Kd=kdiss/kass. It is also noted that other methods known to one of ordinary skill in the art can be used to determine binding activities of fibrin beta chain derived peptides of the invention to VE-caherin including, for example, ELISA-based methods (see, for example, Gorlatov et al. Biochemistry (2002) 41, 4107-4116).

[2] = test system: leukocyte (neutrophil) migration into the peritoneum; assay: Thioglycollate-induced in vivo peritonitis model of leukocyte migration; parameters: species or system mouse; settings: for inhibition of leukocyte infiltration and migration compared to β15-42: (β15-66)2 8.6 mg/kg, (β15-44)2 5.1 mg/kg; for leukocyte migration / number of leukocytes accumulating in the peritoneum: peptide i.v. prior to i.p. thioglycollate, peritoneal lavage at 4 h, versus PBS control
Method: We compared their anti-inflammatory effects in an in vivo peritonitis model, a well established mouse model for leukocyte migration into sites of acute inflammation. In this model, leukocyte migration from the circulation into the peritoneum was stimulated by intraperitoneal (i.p.) injection of thioglycollate, and leukocyte (neutrophil) accumulation was evaluated after 4 hours by measuring the cell number in the peritoneal lavage.
Leukocyte (e.g., neutrophil) infiltration is a hallmark of injury associated with ischemia and reperfusion, as well as a number of other inflammatory conditions. Therefore, peptides of the invention are tested to determine the ability to decrease leukocyte infiltration in vivo. The ability to inhibit leukocyte infiltration was tested in an in vivo model of peritonitis, which is a well established mouse model for leukocyte infiltration and migration into sites of inflammation. The protocol for this animal model is described as below. Experiments were performed consistent with accepted practice (see, for example, Bosse et al. 1994. Eur. J. Immunol. 24: 3019; Borges et al. 1997. Blood 90: 1934; US Patent Application Publication No. 20030105020). To induce peritonitis, thioglycollate was administered intraperitoneally (i.p.) to mice. For inhibition studies, mice were injected intravenously (i.v.) with either β15-42, (β15-44)2, or (β15-66)2 prior to i.p. injection of thioglycollate (FIG. 4). Control mice were treated with the same volume of PBS. All reagents are kept endotoxin-free. At 4 h after injection of thioglycollate, mice were sacrificed and the peritoneal lavage was generated by, for example, injecting 10 ml PBS, massaging the peritoneal wall, and removing the fluid. Following the peritoneal lavage, leukocytes were quantified (e.g., neutrophil quantification determined using a hemocytometer).

[3] = test system: ischemic myocardium; assay: Coronary artery ligation mouse model of myocardial infarction (ischemia and reperfusion); format: in vivo; settings: MI mice, i.v., about 16 nanomoles
Text: To confirm the ability of (β15-66)2, (β15-44)2, (β15-40)2, (β15-35)2, and β15-42 to protect (with the former peptides showing increased protection over β15-42) against injury following ischemia and reperfusion an animal model of myocardial infarction (MI) is employed. The effect of the β15-42, (β15-66)2, (β15-44)2, (β15-40)2, and (β15-35)2 (and other fibrin beta chain derived peptides of the invention) on the protection and infiltration and migration of leukocytes into the ischemic myocardium is determined by, for example, using a coronary artery ligation mouse model of MI. To determine the efficacy of these peptides to protect against injury and inhibit leukocyte infiltration and migration into the myocardium following ischemia a fibrin beta chain derived peptide is administered (for example, at a dose of about 16 nanomoles, which can be adjusted accordingly to determine efficacy) i.v. into 8-12 week-old C57BL6 mice (20 to 25 g), for example, prior to left anterior descending (LAD) coronary artery ligation, upon reperfusion, or after reperfusion. Mice injected with PBS are used as controls. […] Administration can be adjusted based on, for example, pharmacodynamic and pharmacokinetic properties.
The study may comprise at least 7 different groups: sham-operated control (group #1), MI mice with no treatment (group #2), and MI mice treated with β15-42 (group #3), (β15-66)2 (group #4), (β15-44)2 (group #5), (β15-40)2 (group #6), and (β15-35)2 (group #7). To ensure objectivity, these experiments are conducted in a double-blind and placebo-controlled manner. Thus, β15-42, (β15-66)2, (β15-44)2, (β15-40)2, (β15-35)2, and PBS are assigned randomly to a reference number, which is blinded to the personnel involved in conducting the surgery and performing post-surgery analysis. […] Leukocyte infiltration into the ischemic myocardium is determined by H&E staining and cardiomyocyte apoptosis is determined by TdT-mediated dUTP Nick-End Labeling (TUNEL) staining. […]

[4] = molecular target: T1, VE-cadherin (Homo sapiens, UniProt P33151); settings: cited from earlier work
T1 sequence (P33151 48-784): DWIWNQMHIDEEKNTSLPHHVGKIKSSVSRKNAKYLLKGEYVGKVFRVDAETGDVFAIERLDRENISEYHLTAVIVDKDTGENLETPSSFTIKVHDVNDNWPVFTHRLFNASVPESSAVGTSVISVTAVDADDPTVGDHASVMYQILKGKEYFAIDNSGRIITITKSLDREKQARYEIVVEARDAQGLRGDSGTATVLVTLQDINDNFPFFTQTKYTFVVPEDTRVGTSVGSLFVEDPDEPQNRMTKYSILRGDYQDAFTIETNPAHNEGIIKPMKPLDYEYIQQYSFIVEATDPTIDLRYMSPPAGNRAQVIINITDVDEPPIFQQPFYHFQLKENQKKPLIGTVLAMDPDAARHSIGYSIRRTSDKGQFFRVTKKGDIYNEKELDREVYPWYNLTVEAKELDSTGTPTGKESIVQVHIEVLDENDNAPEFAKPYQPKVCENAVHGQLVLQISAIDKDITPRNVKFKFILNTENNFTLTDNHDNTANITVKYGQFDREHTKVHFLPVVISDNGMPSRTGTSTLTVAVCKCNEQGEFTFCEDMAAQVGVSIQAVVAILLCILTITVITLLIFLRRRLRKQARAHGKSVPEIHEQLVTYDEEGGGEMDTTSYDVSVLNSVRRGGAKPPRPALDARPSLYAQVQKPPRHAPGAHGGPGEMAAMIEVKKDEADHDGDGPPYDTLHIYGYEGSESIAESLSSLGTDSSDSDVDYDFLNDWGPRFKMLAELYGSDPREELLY

[5] = test system: myocardial ischemia-reperfusion injury; settings: acute or chronic rat models; cited from earlier work

Substance	affinity to VE-cadherin (in words) [1]	inhibition of leukocyte infiltration and migration compared to β15-42 ([2]; peritonitis model, 4 h)	efficacy compared to β15-42 [3]	binding to VE-cadherin [1]	leukocyte migration / number of leukocytes accumulating in the peritoneum [2]	also measured
(β15-35)2: dimer; monomer GHRPLDKKREEAPSLRPAYCG (SEQ ID NO:7) (GHRPLDKKREEAPSLRPAYCG; also: disulfide-linked homodimer)	even higher affinity	even further inhibit leukocyte infiltration and migration	increased efficacy			affinity to VE-cadherin compared to both (β15-44)2 and (β15-40)2 ([1]; FIG. 3): unexpectedly higher degree of affinity
β15-42: peptide which includes amino acid residues 15-42 of the fibrin β chain (GHRPLDKKREEAPSLRPAPPPISGGGYR) [reference compound]	weak			very little binding	significantly lower; also recorded: inhibits leukocyte migration	competition with fibrin for the interaction with VE-cadherin [4]: competes with fibrin for the interaction with VE-cadherin; myocardial inflammation and infarct size [5]: substantially reduced
thymosin β4 (SDKPDMAEIEKFDKSKLKKTETQEKNPLPSKETIEQEKQAGES; Thymosin beta-4; UniProt P62328 2-44, looked up) [TB4]					inhibits leukocyte migration	
(β15-44)2: synthetic dimer; monomer GHRPLDKKREEAPSLRPAPPPISGGGYRCG (SEQ ID NO:5), Cys43-Cys43 disulfide bond (GHRPLDKKREEAPSLRPAPPPISGGGYRCG; also: Cys43-Cys43 disulfide homodimer)	comparable to that of (β15-66)2; also recorded: even higher affinity	almost twice as much	increased efficacy		inhibits leukocyte migration	number of leukocytes compared to β15-44 ([2]; peritonitis model, 4 h): decrease in the number of leukocytes; inhibitory effect on leukocyte transmigration compared to (β15-66)2 ([2]; peritonitis model, FIG. 4): superior
β15-64: monomeric fibrin β chain residues 15-64 (fibrin βN-domain) [reference compound]				very little binding		
(β15-40)2: dimer; monomer GHRPLDKKREEAPSLRPAPPPISYCG (SEQ ID NO:6) (GHRPLDKKREEAPSLRPAPPPISYCG; also: disulfide-linked homodimer)	even higher affinity	even further inhibit leukocyte infiltration and migration	increased efficacy			
